Measurements reported in ChEMBL document CHEMBL1201862, “PubChem BioAssay data set” (2004).
Calls of active or inactive are those of the source.

Experiments:
INS1 [1] = assay: INS-1E survival protection against cytokine death – cell-based, luminescence, retest, dose response (AID 449756); type: functional; settings: Rattus norvegicus;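 further: cell death triggered by IL-1 beta plus TNF-alpha plus IFN-gamma mixture; protective hits raise ATP signal compared with cytokine alone wells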
HEK293 = assay: EBV LMP1 TES2 canonical NF-kB signalling blockers – cell-based, HEK293, luciferase, cherry-pick, dose response (AID 588343); type: functional; settings: Homo sapiens
Exodeoxyribonuclease V = Exodeoxyribonuclease V (Escherichia coli (strain K12), UniProt P04993+P07648+P08394); assay: RecBCD inhibition via phage-restricted bacterial growth – absorbance, V66 E. coli, mutant T4 phage, counter-screen for AddAB inhibitor project, dose response (AID 492957); type: functional, cell-based, Escherichia coli str. K-12 substr. MG1655
Sequence of Exodeoxyribonuclease V (P04993 whole entry): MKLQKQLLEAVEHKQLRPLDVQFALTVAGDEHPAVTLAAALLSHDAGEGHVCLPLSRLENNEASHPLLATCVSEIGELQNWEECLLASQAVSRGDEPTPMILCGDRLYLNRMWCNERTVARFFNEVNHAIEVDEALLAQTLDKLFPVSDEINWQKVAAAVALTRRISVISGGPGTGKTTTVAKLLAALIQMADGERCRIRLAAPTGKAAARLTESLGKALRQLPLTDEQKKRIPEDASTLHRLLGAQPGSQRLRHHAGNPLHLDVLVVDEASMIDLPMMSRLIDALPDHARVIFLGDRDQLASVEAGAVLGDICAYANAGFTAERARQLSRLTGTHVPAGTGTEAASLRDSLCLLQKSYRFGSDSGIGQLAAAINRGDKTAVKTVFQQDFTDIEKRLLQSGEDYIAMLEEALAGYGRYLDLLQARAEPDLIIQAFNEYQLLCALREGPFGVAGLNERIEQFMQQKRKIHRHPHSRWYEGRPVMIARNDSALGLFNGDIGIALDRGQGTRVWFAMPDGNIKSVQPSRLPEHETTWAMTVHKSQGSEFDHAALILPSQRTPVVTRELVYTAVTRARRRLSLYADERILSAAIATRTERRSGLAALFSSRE
Sequence of Exodeoxyribonuclease V (P07648 whole entry): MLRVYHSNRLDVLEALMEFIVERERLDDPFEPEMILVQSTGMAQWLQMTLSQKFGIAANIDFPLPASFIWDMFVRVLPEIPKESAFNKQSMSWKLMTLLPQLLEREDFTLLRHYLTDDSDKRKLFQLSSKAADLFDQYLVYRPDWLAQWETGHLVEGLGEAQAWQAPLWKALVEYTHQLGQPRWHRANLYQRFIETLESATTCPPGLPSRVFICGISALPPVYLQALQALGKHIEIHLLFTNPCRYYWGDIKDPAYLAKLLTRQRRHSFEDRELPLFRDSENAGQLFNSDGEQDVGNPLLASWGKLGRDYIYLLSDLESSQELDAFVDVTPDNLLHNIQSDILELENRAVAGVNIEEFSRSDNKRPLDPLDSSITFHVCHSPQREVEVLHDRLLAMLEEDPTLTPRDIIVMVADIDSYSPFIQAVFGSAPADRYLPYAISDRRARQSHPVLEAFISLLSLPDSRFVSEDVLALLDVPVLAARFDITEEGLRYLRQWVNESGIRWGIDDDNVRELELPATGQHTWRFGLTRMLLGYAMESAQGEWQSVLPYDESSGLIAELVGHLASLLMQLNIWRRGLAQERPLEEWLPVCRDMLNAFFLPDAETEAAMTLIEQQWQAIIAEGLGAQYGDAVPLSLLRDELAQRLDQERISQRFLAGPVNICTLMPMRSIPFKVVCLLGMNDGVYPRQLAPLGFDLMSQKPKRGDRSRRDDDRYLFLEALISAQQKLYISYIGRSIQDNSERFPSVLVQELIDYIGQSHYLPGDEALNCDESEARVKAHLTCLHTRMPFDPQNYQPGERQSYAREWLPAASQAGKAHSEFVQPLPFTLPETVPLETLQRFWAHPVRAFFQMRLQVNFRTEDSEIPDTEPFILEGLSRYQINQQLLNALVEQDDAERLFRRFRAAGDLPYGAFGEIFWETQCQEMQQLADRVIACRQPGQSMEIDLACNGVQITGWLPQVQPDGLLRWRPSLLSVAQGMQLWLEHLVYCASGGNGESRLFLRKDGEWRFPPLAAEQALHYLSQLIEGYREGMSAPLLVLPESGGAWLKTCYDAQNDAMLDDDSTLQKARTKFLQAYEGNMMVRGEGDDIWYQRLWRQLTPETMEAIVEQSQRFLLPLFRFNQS
Sequence of Exodeoxyribonuclease V (P08394 whole entry): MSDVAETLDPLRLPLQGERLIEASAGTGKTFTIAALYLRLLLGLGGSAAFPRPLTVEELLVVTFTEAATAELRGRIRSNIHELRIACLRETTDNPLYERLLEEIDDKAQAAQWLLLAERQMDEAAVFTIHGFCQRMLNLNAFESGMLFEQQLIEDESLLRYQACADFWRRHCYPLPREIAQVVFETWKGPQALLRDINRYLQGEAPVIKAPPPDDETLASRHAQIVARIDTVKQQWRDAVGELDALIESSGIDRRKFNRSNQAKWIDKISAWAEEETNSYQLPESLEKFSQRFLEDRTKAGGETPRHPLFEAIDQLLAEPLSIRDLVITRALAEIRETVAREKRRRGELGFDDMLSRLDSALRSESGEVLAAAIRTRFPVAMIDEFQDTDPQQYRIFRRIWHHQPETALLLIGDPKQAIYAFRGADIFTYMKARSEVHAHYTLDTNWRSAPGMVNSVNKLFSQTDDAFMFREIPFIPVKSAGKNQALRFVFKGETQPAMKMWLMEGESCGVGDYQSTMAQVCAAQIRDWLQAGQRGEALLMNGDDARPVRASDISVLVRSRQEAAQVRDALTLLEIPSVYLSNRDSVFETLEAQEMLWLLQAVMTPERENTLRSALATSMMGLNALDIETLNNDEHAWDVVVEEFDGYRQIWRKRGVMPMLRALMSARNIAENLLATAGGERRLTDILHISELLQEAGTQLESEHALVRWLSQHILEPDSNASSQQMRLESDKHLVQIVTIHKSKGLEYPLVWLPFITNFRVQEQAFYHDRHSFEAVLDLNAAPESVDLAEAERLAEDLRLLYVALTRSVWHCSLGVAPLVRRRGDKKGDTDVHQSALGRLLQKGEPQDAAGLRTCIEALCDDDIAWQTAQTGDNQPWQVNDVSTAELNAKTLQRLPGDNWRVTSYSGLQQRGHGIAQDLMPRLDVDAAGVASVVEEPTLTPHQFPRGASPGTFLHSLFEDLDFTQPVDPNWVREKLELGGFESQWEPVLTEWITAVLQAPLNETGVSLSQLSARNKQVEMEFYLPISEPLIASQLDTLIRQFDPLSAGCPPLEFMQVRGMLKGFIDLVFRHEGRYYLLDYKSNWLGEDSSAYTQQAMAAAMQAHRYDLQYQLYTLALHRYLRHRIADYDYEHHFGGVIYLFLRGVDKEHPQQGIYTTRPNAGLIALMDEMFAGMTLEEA

[2] = Counterscreen for AddAB inhibitors: absorbance-based bacterial cell-based high throughput dose response assay for inhibitors of bacterial viability. [Related pubchem assays (depositor defined):AID435030, AID449728, AID449731, AID488942, AID488955, AID488956]; type: functional
[3] = biological target: G-protein coupled receptor 55 (Homo sapiens, UniProt Q9Y2T6); assay: inhibition of LPI-stimulated GPR55 beta-arrestin translocation – imaging, U2OS, beta-arrestin-GFP, LPI agonist, primary screen (AID 2013); type: functional;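 further: antagonist potency measured as reduced agonist-driven arrestin aggregation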
Sequence of G-protein coupled receptor 55 (Q9Y2T6 whole entry): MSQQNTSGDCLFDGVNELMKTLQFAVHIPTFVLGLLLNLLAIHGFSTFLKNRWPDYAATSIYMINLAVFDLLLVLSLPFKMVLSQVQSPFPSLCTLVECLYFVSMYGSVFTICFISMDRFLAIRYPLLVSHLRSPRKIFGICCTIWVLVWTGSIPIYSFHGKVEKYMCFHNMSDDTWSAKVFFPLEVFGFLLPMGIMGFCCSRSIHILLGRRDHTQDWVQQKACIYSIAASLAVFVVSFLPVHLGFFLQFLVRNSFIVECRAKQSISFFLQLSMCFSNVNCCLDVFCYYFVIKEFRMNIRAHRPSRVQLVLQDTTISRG

SUMO-activating enzyme [4] = biological target: T1, SUMO-activating enzyme (Homo sapiens, UniProt Q9UBT2); assay: blockers of SAE1/SAE2–UBC9 SUMO transfer – biochemical, HTRF, uHTS, primary screen (AID 2006); type: protein-complex assay
T1 sequence (Q9UBE0 whole entry): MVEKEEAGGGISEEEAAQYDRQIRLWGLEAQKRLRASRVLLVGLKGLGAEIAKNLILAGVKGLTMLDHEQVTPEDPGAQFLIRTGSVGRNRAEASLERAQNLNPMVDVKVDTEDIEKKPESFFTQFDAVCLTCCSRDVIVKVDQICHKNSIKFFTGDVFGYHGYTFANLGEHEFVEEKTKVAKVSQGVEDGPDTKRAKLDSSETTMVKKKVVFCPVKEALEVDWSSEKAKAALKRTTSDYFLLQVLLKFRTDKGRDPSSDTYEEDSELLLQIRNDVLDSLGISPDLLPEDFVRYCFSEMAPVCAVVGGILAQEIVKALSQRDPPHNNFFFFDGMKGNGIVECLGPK
T1 sequence (Q9UBT2 whole entry): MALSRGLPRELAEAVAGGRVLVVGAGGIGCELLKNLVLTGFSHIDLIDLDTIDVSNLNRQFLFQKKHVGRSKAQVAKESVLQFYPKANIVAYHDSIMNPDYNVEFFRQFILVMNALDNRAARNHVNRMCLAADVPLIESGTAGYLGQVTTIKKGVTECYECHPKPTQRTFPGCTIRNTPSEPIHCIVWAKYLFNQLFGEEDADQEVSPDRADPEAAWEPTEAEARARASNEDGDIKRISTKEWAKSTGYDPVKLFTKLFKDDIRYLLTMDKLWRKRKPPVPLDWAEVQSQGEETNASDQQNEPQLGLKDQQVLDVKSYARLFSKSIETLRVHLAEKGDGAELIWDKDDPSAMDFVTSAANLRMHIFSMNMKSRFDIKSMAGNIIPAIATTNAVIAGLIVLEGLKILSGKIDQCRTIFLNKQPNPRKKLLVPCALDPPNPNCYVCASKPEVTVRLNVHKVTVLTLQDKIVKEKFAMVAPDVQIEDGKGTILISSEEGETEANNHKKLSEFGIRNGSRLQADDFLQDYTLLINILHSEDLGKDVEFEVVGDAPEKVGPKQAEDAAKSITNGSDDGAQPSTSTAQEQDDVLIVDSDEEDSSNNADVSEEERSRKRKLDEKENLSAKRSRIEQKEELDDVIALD

[5] = biological target: T2, Rac GTPase-activating protein 1 (Homo sapiens, UniProt Q9H0H5); assay: blockers of MgcRacGAP-driven Rac1 GTP hydrolysis – biochemical, ADP Hunter fluorescence, primary and confirmatory, confirmation (AID 624330); type: functional
T2 sequence (Q9H0H5 whole entry): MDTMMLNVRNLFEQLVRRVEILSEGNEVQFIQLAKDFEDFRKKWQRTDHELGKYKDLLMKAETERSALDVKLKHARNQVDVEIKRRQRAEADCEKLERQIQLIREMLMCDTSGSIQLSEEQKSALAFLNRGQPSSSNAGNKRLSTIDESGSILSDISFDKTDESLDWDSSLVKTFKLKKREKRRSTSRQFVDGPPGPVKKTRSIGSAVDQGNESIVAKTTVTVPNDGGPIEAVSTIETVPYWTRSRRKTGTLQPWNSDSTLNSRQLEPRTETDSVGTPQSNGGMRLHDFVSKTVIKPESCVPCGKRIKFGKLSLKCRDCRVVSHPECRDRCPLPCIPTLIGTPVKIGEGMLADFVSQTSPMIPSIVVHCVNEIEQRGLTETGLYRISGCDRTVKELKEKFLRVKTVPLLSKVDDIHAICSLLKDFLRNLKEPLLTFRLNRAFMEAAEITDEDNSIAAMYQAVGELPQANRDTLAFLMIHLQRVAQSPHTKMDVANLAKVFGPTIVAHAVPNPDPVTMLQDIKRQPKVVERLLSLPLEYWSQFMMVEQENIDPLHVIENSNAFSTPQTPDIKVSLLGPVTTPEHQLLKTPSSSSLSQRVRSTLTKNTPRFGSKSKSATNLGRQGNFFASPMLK

[6] = biological target: Eukaryotic translation initiation factor 4E (Mus musculus, UniProt P63073); assay: blockers of eIF4G binding by eIF4E – biochemical, TR-FRET, dose response (AID 855); type: functional;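 further: potency for disrupting eIF4E binding to eIF4GI seen as loss of FRET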
Sequence of Eukaryotic translation initiation factor 4E (P63073 whole entry): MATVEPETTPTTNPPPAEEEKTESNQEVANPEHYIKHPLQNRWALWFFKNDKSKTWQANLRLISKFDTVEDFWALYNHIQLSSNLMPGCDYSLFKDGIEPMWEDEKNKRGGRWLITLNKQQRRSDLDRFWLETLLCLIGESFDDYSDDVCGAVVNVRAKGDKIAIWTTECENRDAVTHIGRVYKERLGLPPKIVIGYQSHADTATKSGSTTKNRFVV

SUMO-activating enzyme [7] = biological target: T1, SUMO-activating enzyme; assay: blockers of UBC9-mediated SUMO conjugation – biochemical, AlphaScreen, SUMOylation inhibitor project, confirmation (AID 2018); type: functional
[8] = Luminescence Cell-Based Secondary HTS screen to identify cytotoxic compounds of NIH3T3 cells. [Related pubchem assays: 1885, 1968 ]; type: functional
[9] = Trypanosoma cruzi growth suppression in host cells – NIH3T3 host cells, beta-gal luminescence, confirmation (AID 2044); type: functional, cell-based;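 further: intracellular parasites grown in NIH/3T3 mouse fibroblasts as host cells; luminescent beta-galactosidase reporter signal from transgenic T. cruzi replicating inside host cells; inhibitors lower the luminescence signal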
[10] = Luminescence Cell-Based/Microorganism Confirmation at Dose of Inhibitors of Trypanosoma cruzi Infection. [Related pubchem assays: 1885, 1968 ]; type: functional
[11] = T. cruzi infection blockers in NIH3T3 cells – beta-gal luminescence, NIH3T3 host cells, confirmation (AID 2630); type: functional, cell-based; settings: Mus musculus
[12] = NIH3T3 cell viability loss – ATP luminescence, mouse fibroblasts, counter-screen, dose response (AID 2010); type: functional, cell-based;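 further: cells exposed to compound for about 90 hours before reading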
[13] = biological target: T3, Replicative DNA helicase DnaB (Mycobacterium tuberculosis, UniProt P9WMR3); assay: DnaB intein splicing inhibitors, dose response, biochemical, cell-free fluorescence (AID 449749); type: functional
T3 sequence (P9WMR3 whole entry): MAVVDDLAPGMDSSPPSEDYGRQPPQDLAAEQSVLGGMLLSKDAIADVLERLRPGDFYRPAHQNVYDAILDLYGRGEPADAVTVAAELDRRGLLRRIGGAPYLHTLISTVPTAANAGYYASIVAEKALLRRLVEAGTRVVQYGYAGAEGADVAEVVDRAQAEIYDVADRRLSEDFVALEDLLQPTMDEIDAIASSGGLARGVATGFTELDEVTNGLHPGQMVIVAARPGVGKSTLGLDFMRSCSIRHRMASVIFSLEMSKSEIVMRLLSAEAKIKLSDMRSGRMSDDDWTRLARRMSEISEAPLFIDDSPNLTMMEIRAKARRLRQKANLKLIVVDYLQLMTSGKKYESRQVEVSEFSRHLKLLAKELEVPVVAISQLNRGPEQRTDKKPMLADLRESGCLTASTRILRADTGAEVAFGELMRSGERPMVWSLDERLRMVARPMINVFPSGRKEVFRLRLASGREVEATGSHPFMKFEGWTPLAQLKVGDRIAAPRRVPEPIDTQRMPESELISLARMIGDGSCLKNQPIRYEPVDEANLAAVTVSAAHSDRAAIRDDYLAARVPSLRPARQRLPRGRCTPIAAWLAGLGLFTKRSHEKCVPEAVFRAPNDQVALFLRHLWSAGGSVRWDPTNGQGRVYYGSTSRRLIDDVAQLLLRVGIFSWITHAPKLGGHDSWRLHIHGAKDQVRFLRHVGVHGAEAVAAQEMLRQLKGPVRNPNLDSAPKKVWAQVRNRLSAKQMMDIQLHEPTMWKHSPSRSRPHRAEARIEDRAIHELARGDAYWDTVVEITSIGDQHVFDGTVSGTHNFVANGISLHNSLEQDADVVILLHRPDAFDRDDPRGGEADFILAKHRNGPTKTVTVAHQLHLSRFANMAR

[14] = luciferase reporter signal suppression in cells – H4 neuroglioma cells, luminescence, dose response (AID 1990); type: functional, cell-based
Hexokinase HKDC1 = biological target: T4, Hexokinase HKDC1 (Homo sapiens, UniProt Q2TB90); assay: inhibition of HKDC1 glucose phosphorylation – biochemical, W721R variant, dose response (AID 504729); type: functional
T4 sequence (Q2TB90 whole entry): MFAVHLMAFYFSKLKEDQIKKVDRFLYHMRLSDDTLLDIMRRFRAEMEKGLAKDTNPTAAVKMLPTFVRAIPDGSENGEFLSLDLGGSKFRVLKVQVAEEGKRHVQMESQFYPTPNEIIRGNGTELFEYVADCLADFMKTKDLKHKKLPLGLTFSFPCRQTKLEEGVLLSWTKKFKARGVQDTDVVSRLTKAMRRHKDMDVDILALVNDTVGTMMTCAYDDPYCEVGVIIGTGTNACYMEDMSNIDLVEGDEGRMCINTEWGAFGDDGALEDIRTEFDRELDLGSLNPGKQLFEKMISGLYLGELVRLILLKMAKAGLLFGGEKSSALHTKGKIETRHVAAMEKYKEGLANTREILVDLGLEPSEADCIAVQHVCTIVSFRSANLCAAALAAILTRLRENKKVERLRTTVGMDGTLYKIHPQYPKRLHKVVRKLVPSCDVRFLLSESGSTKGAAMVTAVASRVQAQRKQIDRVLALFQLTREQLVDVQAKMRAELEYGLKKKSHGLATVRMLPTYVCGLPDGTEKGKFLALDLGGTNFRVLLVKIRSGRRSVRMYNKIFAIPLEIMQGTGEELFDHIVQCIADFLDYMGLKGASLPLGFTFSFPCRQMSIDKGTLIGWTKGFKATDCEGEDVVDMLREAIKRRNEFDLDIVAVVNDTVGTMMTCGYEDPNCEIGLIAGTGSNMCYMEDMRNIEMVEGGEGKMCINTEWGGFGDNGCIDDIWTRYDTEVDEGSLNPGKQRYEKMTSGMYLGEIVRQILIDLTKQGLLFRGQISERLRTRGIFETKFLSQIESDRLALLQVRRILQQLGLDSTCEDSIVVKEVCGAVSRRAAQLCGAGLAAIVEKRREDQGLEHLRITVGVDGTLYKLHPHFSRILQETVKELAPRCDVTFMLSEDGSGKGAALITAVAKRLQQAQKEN

[15] = alpha-synuclein stem-loop luciferase translation blockers – H4 neuroglioma cells, luminescence, confirmation (AID 1988); type: functional, cell-based
Protein RecA = biological target: T5, Protein RecA (Mycobacterium tuberculosis, UniProt P9WHJ3); assay: Fluorescence Cell-Free Homogeneous Dose Retest to Identify Inhibitors of RecA-Intein Splicing Activity. [Related pubchem assays (depositor defined):AID2097, AID2223, AID489010, AID492950]; type: functional
T5 sequence (P9WHJ3 whole entry): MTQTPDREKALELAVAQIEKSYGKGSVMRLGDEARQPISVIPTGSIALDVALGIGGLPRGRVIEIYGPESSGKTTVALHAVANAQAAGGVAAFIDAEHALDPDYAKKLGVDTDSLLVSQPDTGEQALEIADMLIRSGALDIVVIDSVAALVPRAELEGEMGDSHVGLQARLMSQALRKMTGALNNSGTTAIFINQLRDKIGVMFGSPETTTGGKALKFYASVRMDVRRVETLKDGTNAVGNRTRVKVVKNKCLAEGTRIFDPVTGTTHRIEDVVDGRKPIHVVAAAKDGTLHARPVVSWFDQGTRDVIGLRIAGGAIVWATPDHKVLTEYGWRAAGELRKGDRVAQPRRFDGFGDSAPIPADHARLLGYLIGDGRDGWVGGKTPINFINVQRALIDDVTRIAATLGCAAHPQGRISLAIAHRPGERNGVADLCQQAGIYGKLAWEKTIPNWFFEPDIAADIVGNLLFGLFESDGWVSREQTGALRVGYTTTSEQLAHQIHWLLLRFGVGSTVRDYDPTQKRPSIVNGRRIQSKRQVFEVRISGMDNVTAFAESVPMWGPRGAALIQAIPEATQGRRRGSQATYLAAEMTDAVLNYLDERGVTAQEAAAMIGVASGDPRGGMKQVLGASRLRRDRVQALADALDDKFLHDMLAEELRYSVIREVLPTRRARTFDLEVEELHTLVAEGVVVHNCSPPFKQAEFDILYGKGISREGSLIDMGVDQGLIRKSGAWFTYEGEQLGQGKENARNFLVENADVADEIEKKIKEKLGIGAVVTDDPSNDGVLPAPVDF

[16] = Luminescence Cell-Based Dose Response HTS to Identify Inhibitors of 5'UTR Stem-Loop Driven Prion Protein mRNA Translation in H4 Neuroglioblastoma Cells. [Related pubchem assays: 1827 (Project Summary), 1813 (Primary HTS)]; type: functional
INS1 [17] = assay: beta-cell survival under cytokine stress – INS-1E, ATP luminescence, dry powder, dose response (AID 488844); type: functional, cell-based; settings: Rattus norvegicus
[18] = biological target: T6, Sentrin-specific protease 8 (Homo sapiens, UniProt Q96LD8); type: functional
T6 sequence (Q96LD8 whole entry): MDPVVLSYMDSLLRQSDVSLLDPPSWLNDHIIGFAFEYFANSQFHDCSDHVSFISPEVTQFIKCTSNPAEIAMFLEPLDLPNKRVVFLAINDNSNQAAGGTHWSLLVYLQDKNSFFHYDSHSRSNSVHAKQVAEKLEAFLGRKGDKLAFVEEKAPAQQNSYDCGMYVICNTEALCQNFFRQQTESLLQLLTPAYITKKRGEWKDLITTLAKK

[19] = biological target: T6, Sentrin-specific protease 8; type: functional; remark: listed apart in the source

CCC(=O)NC(c1ccc(C)cc1)c1cc(Cl)c2cccnc2c1O (configuration not stated)
AC50 (INS1 [1]): 1.65 µM (active) | AC50 (HEK293): 12.9 µM (active) | IC50 (Exodeoxyribonuclease V): > 119 µM (inactive) | IC50 [2]: > 119 µM (inactive)

O=C(O)c1cccc(N2C(=O)/C(=C/c3ccc(SCc4ccc(Cl)cc4)o3)SC2=S)c1
IC50 [3]: 4.43 µM (active) | IC50 (SUMO-activating enzyme [4]): 14.6 µM (active) | IC50 [5]: 132 µM (active) | IC50 [6]: 29.9 µM (active) | IC50 (SUMO-activating enzyme [7]): 1.39 µM (active)

O=C(Cc1cn(Cc2cccc(Cl)c2)c2ccccc12)N1CCCCCC1
EC50 [8]: > 195 µM (not active) | EC50 [9]: 1.75 µM (active) | EC50 [10]: 3.09 µM (active) | EC50 [11]: 3.09 µM (active) | EC50 [12]: > 60 µM (not active)

CSc1ccc(CN2CCCC(CNC(=O)c3ccc(F)cc3)C2)cc1 (configuration not stated)
EC50 [8]: > 195 µM (not active) | EC50 [9]: < 0.1 µM (active) | EC50 [10]: 7.17 µM (active) | EC50 [11]: 7.17 µM (active) | EC50 [12]: > 30 µM (not active) | EC50 (cells): 0.12 µM (active)

CCCCC[C@H](O)/C=C/[C@@H]1[C@@H](C/C=C\CCCC(=O)OC)[C@@H](O)C[C@H]1O
IC50 (SUMO-activating enzyme [4]): 18.4 µM (active) | AC50 [13]: 16.1 µM (active) | EC50 [14]: > 120 µM (not active) | IC50 (Hexokinase HKDC1): 9.12 µM (active) | EC50 [15]: > 120 µM (not active) | EC50 (Protein RecA): 12.2 µM (active) | IC50 [6]: 8.7 µM (active) | EC50 [16]: > 120 µM (not active) | IC50 (SUMO-activating enzyme [7]): 10.5 µM (active)

C[C@@H]1CN([C@@H](C)CO)C(=O)c2cccc(NC(=O)Nc3ccccc3)c2O[C@H]1CN(C)S(=O)(=O)c1ccc(Cl)cc1
AC50 (INS1 [17]): 116 µM (active)

O=C(CCN1CCN(c2ccccc2)CC1)N/N=C/c1ccc([N+](=O)[O-])o1
IC50 [18]: 40 µM (active) | IC50 [19]: 96.9 µM (inactive) | EC50 [9]: < 0.1 µM (active) | EC50 [12]: > 60 µM (not active) | IC50 (Exodeoxyribonuclease V): > 119 µM (inactive) | IC50 [2]: > 39.5 µM (inactive) | EC50 (cells): 0.037 µM (active)
